Measurements taken from publication PMC7393355, “A FRET-based screening method to detect potential inhibitors of the binding of CNNM3 to PRL2” (Scientific Reports, 2020).
Each block holds one compound with its values, some of them ahead of it.

Legend:
[1] = tested on: binding of CNNM3-YPet and CyPet-PRL2 (CNNM3-PRL2 complex); assay: FRET-based inhibition test of the binding of CNNM3-YPet and CyPet-PRL2; set-up: species or system human; settings: CNNM3-YPet 200 nM, CyPet-PRL2 200 nM, n = 6
Description: FRET measurements were conducted in TBS (50 mM Tris–HCl (pH 8.0) and 150 mM NaCl). Proteins were mixed in 96-well plates and incubated at R.T. for 1 h. Fluorescence intensities were measured using an excitation wavelength of 435 nm and an emission wavelength of 530 nm with a Cytation 3 (BioTek).
The emission spectra were measured with each component at 200 nM using the Cytation 3 (BioTek) with 435 nm excitation (Supplementary Fig. 2), and the original data are shown in Supplementary Table 1. The FRET intensity was calculated by Eq. (1).1 IFRET=IA-raw-Dleakage-Adirect where IA-raw is the intensity measured at 530 nm with 435 nm excitation, Dleakage is the leakage of the donor emission into the acceptor wavelength (530 nm) upon donor excitation, and Adirect is the direct excitation of the acceptor with the donor wavelength (435 nm).
The inhibition of complex formation was assayed by pre-incubating the binding partner (200 nM) with inhibitory factors (1, 10 μM) for 20 min at R.T., followed by addition of the other protein (200 nM) (Figs. 3B, 4C). The effects of divalent cations (10 mM) and nucleotides (3 mM) were also assayed similarly (Fig. 5).
The peptides for the peptide inhibition test were synthesized by Shanghai Dechi Biosciences (Fig. 6C,D). The peptide sequences were as follows: peptide 1, IVQKVNNEGEGDPFYEVLG; peptide 2, […] (an S–S bond was formed between the cysteine residues, as verified by HPLC and mass spectrometry). The peptides were dissolved in TBS buffer at 10 mM before use.
FRET data were evaluated by subtracting backgrounds (fluorescence intensities of CyPet-PRL2, CNNM3-YPet and a blank well). All data analysis was performed using GraphPad Prism 6 (GraphPad Software) with the methods described in each legend.

PRL2 = assay: Isothermal titration calorimetry (ITC) with PRL2; assay type: binding, human; settings: 25 °C, cell 20 μM PRL2, syringe 200 μM ligand, 20 mM Tris-HCl pH 7.0, 50 mM NaCl, 1 mM TCEP, 2% DMSO, repeated twice
Description: ITC experiments were performed by ITC200 (GE Healthcare, USA). PRL2 and CNNM3 CBS domain proteins were purified in Buffer A (20 mM Tris–HCl (pH 7.0), 50 mM NaCl, and 1 mM TCEP). JMS-053 (Aobious, USA) was dissolved in 100% DMSO at 10 mM, further diluted to 200 μM with Buffer A. The ITC cell was thermally equilibrated at 25 °C and then filled with 250 μl of 20 μM PRL2, while the syringe was filled with 40 μl of 200 μM JMS-053 or CNNM3 CBS protein. In the case of JMS-053, 2% DMSO at a final concentration was added into PRL2 protein solution. Data were analysed by Microcal Origin software.

Compound: IVQKVNNEGEGDPFYEVLG [peptide 1, shorter synthesized peptide derived from the CNNM CBS loop]
effect of peptide on complex formation (in words) ([1]; peptide 100 μM): failed to interrupt complex formation

decrease of FRET intensity by divalent cation ([1]; 10 mM divalent cation): 90.3%
Compound: [Zn+2] [Zn^2+]

effect of divalent cation on FRET intensity (in words) ([1]; 10 mM divalent cation): no effect on the FRET intensity
Compound: [Mg+2] [Mg^2+]

effect on the interaction between CNNM3 and PRL2 (in words) [1]: no effect
Compound: N=C1C(=O)NC(=O)c2cc(-c3ccccc3)sc21 [JMS-053, reference compound]
interaction with PRL2 by ITC (in words) (PRL2): no interaction

alteration of FRET intensity by nucleotide ([1]; 3 mM nucleotide): 9.6%
Compound: Nc1ncnc2c1ncn2[C@@H]1O[C@H](COP(=O)(O)OP(=O)(O)O)[C@@H](O)[C@H]1O [ADP, reference compound]

inhibition of complex formation ([1]; peptide 100 μM): 20%
inhibition of complex formation ([1]; peptide 500 μM): 50%
Compound: LAICQRVNNEGEGDPFYEVCGIVT (an S–S bond was formed between the cysteine residues (disulfide) [peptide 2, longer CNNM CBS loop peptide with two residues mutated to cysteine to form an S–S bond]
